Where “and” joins values, the source holds several entries; their conditions need not be identical. Identical values can stand only once. Entries after “also recorded” stand apart in the source; their conditions may differ. Like-named read-outs stand apart in the source and are kept apart here.
How the values were obtained:
Type in all cases: cell-based
[1] = target: (α4^VFL)3(β2)2 nAChR from α4^VFL and β2 (10:1) (Homo sapiens, UniProt P17787+P43681, H142V/Q150F/T152L); assay: two-electrode voltage-clamp, X. laevis oocytes, α4^VFL and β2 cRNA 10:1
(α4^VFL)3(β2)2 nAChR from α4^VFL and β2 (10:1), sequence (P43681 27-627 H142V/Q150F/T152L): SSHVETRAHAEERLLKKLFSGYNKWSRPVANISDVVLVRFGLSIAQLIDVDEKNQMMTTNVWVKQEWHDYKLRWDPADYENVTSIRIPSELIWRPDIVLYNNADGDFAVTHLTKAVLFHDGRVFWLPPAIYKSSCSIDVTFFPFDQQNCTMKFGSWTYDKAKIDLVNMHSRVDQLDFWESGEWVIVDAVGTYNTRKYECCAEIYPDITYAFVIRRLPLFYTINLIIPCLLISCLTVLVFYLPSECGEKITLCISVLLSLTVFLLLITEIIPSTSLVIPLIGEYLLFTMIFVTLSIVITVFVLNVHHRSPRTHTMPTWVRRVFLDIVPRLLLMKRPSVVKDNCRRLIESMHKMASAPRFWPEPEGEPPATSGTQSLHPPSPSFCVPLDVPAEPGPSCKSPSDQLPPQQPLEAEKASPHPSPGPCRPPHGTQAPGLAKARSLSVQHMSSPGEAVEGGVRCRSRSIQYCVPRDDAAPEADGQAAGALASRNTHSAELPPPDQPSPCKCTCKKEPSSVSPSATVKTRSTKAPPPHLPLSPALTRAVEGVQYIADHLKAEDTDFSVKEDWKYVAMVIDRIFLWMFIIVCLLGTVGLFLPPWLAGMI
(α4^VFL)3(β2)2 nAChR from α4^VFL and β2 (10:1), sequence (P17787 26-502): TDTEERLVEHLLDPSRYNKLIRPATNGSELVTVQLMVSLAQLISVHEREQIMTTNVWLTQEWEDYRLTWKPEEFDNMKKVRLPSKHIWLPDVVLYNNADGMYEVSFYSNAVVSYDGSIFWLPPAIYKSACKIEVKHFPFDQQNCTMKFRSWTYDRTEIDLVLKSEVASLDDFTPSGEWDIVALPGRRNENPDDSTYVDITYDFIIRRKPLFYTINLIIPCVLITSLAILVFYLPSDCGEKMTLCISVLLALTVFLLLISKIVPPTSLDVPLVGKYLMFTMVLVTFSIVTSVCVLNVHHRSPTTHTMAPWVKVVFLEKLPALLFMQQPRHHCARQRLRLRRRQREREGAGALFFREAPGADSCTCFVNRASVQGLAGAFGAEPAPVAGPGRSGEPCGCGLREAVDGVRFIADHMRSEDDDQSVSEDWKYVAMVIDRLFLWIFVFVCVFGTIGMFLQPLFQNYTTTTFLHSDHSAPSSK

[2] = target: α4β2 nAChR from β-21a-α-β-α-α^VFL (Homo sapiens, UniProt P17787+P43681, H142V/Q150F/T152L); assay: two-electrode voltage-clamp, oocytes, pentameric β-21a-α-β-α-α^VFL
[3] = target: α4β2 nAChR from β-3a-α and α4^VFL (1:1) (Homo sapiens, UniProt P17787+P43681, H142V/Q150F/T152L); assay: two-electrode voltage-clamp, oocytes, β-3a-α and α4^VFL
[4] = target: α4β2 nAChR from β-3a-α^VFL-α-β-α (Homo sapiens, UniProt P17787+P43681, H142V/Q150F/T152L); assay: two-electrode voltage-clamp, oocytes, pentameric β-3a-α^VFL-α-β-α
[5] = target: α4β2 nAChR from β-21a-α^VFL-α-β-α (Homo sapiens, UniProt P17787+P43681, H142V/Q150F/T152L); assay: two-electrode voltage-clamp, oocytes, pentameric β-21a-α^VFL-α-β-α
[6] = target: α4β2 nAChR from β-6a-α and α4^VFL (1:1) (Homo sapiens, UniProt P17787+P43681, H142V/Q150F/T152L); assay: two-electrode voltage-clamp, oocytes, β-6a-α and α4^VFL
[7] = target: α4β2 nAChR from β-3a-α-β-α-α^VFL (Homo sapiens, UniProt P17787+P43681, H142V/Q150F/T152L); assay: two-electrode voltage-clamp, oocytes, pentameric β-3a-α-β-α-α^VFL
[8] = target: α4β2 nAChR from β-3a-α^VFL-β-α-α (Homo sapiens, UniProt P17787+P43681, H142V/Q150F/T152L); assay: two-electrode voltage-clamp, oocytes, pentameric β-3a-α^VFL-β-α-α
[9] = target: α4β2 nAChR from β-21a-α-α^VFL-β-α (Homo sapiens, UniProt P17787+P43681, H142V/Q150F/T152L); assay: two-electrode voltage-clamp, oocytes, pentameric β-21a-α-α^VFL-β-α
[10] = target: α4β2 nAChR from β-21a-α-α-β-α (Homo sapiens, UniProt P17787+P43681); assay: two-electrode voltage-clamp, oocytes, pentameric β-21a-α-α-β-α
[11] = target: α4β2 nAChR from β-9a-α alone (Homo sapiens, UniProt P17787+P43681); assay: two-electrode voltage-clamp, oocytes, β-9a-α alone
[12] = target: α4β2 nAChR from β-21a-α-β-α-α (Homo sapiens, UniProt P17787+P43681); assay: two-electrode voltage-clamp, oocytes, pentameric β-21a-α-β-α-α
[13] = target: α4β2 nAChR from β-3a-α-β-α-α (Homo sapiens, UniProt P17787+P43681); assay: two-electrode voltage-clamp, oocytes, pentameric β-3a-α-β-α-α
[14] = target: α4β2 nAChR from β-0a-α and α4^VFL (1:1) (Homo sapiens, UniProt P17787+P43681, H142V/Q150F/T152L); assay: two-electrode voltage-clamp, oocytes, β-0a-α and α4^VFL; conditions: β-0a-α + α4^VFL
α4β2 nAChR from β-0a-α and α4^VFL (1:1), sequence (P17787 26-502): as above
α4β2 nAChR from β-0a-α and α4^VFL (1:1), sequence (P43681 27-627, stated change not applied): as the sequence (P43681 27-627 H142V/Q150F/T152L) above, with V116H, F124Q, L126T counted along it
α4β2 nAChR from β-0a-α and α4^VFL (1:1), sequence (P43681 27-627 H142V/Q150F/T152L): as the sequence (P43681 27-627 H142V/Q150F/T152L) above

[15] = target: α4β2 nAChR from β-9a-α and α4^VFL (1:1) (Homo sapiens, UniProt P17787+P43681, H142V/Q150F/T152L); assay: two-electrode voltage-clamp, oocytes, β-9a-α and α4^VFL
[16] = target: α4β2 nAChR from β-6-α and α4^VFL (1:1) (Homo sapiens, UniProt P17787+P43681, H142V/Q150F/T152L); assay: two-electrode voltage-clamp, oocytes, β-6-α and α4^VFL 1:1; conditions: β-6-α + α4^VFL 1:1
[17] = target: α4β2 nAChR from β-6a-α alone (Homo sapiens, UniProt P17787+P43681); assay: two-electrode voltage-clamp, oocytes, β-6a-α alone
[18] = target: α4β2 nAChR from β-6-α-9-β-6-α alone (Homo sapiens, UniProt P17787+P43681); assay: two-electrode voltage-clamp, oocytes, tetrameric β-6-α-9-β-6-α alone
α4β2 nAChR from β-6-α-9-β-6-α alone, sequence (P43681 27-627): as the sequence (P43681 27-627 H142V/Q150F/T152L) above, with V116H, F124Q, L126T counted along it
α4β2 nAChR from β-6-α-9-β-6-α alone, sequence (P17787 26-502): as the sequence (P17787 26-502) above

[19] = target: α4β2 nAChR from β-6-α and α4 (1:1) (Homo sapiens, UniProt P17787+P43681); assay: two-electrode voltage-clamp, oocytes, β-6-α and α4; conditions: β-6-α + α4
[20] = target: (α4)3(β2)2 nAChR from α4 and β2 (10:1) (Homo sapiens, UniProt P17787+P43681); assay: two-electrode voltage-clamp, X. laevis oocytes, α4 and β2 cRNA 10:1
(α4)3(β2)2 nAChR from α4 and β2 (10:1), sequence (P43681 27-627): as the sequence (P43681 27-627 H142V/Q150F/T152L) above, with V116H, F124Q, L126T counted along it
(α4)3(β2)2 nAChR from α4 and β2 (10:1), sequence (P17787 26-502): as the sequence (P17787 26-502) above

[21] = target: α4β2 nAChR from concatenated β-6-α alone (Homo sapiens, UniProt P17787+P43681); assay: two-electrode voltage-clamp, oocytes, β-6-α alone
[22] = target: α4β2 nAChR from β-9a-α and α4 (1:1) (Homo sapiens, UniProt P17787+P43681); assay: two-electrode voltage-clamp, oocytes, β-9a-α and α4
[23] = […] NS9283 + 10 µM ACh, % change from AChcontrol current

**Q.** Which results are given for `CC(=O)OCC[N+](C)(C)C` [ACh, acetylcholine]?
**A.** Emax ([1]; read-out: ACh Emax): 104 ± 2%; ACh Frac (first component fraction) ([1]; α4^VFL+β2 10:1, biphasic fit): 0.71 ± 0.12; Emax ([2]; read-out: ACh Emax): 105 ± 1%; ACh Frac (first component fraction) ([2]; β-21a-α-β-α-α^VFL, biphasic fit): 0.59 ± 0.07; ACh Frac (first component fraction) ([3]; β-3a-α + α4^VFL, biphasic fit): 0.41 ± 0.06; Emax ([4]; read-out: ACh Emax): 105 ± 4%; ACh Frac (first component fraction) ([4]; β-3a-α^VFL-α-β-α, biphasic fit): 0.28 ± 0.10; Emax ([5]; read-out: ACh Emax): 104 ± 1%; ACh Frac (first component fraction) ([5]; β-21a-α^VFL-α-β-α, biphasic fit): 0.44 ± 0.1; ACh Frac (first component fraction) ([6]; β-6a-α + α4^VFL, biphasic fit): 0.31 ± 0.14; Emax ([7]; read-out: ACh Emax): 104 ± 1%; ACh Frac (first component fraction) ([7]; β-3a-α-β-α-α^VFL, biphasic fit): 0.53 ± 0.08; Emax ([8]; read-out: ACh Emax): 105 ± 1%; ACh Frac (first component fraction) ([8]; β-3a-α^VFL-β-α-α, biphasic fit): 0.39 ± 0.05; Emax ([9]; read-out: ACh Emax): 102 ± 2%; ACh Frac (first component fraction) ([9]; β-21a-α-α^VFL-β-α, biphasic fit): 0.46 ± 0.18; Emax ([10]; read-out: ACh Emax): 100 ± 2%; ACh Frac (first component fraction) ([10]; β-21a-α-α-β-α, biphasic fit): 0.060 ± 0.025; Emax ([11]; read-out: ACh Emax): 105 ± 3%; ACh Frac (first component fraction) ([11]; β-9a-α alone, biphasic fit): 0.28 and 0.28 ± 0.05; Emax ([12]; read-out: ACh Emax): 101 ± 1%; mean AChmax-evoked currents ([12]; β-21a-α-β-α-α): ~2 μA; ACh Frac (first component fraction) ([12]; β-21a-α-β-α-α, biphasic fit): 0.060 ± 0.011; Emax ([13]; read-out: ACh Emax): 102 ± 1%; ACh Frac (first component fraction) ([13]; β-3a-α-β-α-α, biphasic fit): 0.11 ± 0.02; ACh Frac (first component fraction) ([14]; biphasic fit): 0.28 ± 0.34; ACh Frac (first component fraction) ([15]; β-9a-α + α4^VFL, biphasic fit): 0.32 ± 0.09; ACh Frac (first component fraction) ([16]; biphasic fit): 0.40 ± 0.08; Emax ([17]; read-out: ACh Emax): 103 ± 2%; ACh Frac (first component fraction) ([17]; β-6a-α alone, biphasic fit): 0.70 ± 0.12; Emax ([18]; read-out: ACh Emax): 109 ± 5%; ACh Frac (first component fraction) ([18]; β-6-α-9-β-6-α alone, biphasic fit): 0.45 and 0.45 ± 0.07; ACh Frac (first component fraction) ([19]; biphasic fit): 0.073 ± 0.038; Emax ([20]; read-out: ACh Emax): 102 ± 1%; ACh Frac (first component fraction) ([20]; α4+β2 10:1, biphasic fit): 0.11 ± 0.03; Emax ([21]; read-out: ACh Emax): 102 ± 2%; ACh Frac (first component fraction) ([21]; β-6-α alone, biphasic fit): 0.11 and 0.11 ± 0.02; ACh Frac (first component fraction) ([22]; β-9a-α + α4, biphasic fit): 0.13 ± 0.05

**Q.** What does the source list for `N#Cc1cccc(-c2nc(-c3cccnc3)no2)c1` [NS9283, 3-(3-(pyridine-3-yl)-1,2,4-oxadiazol-5-yl)benzonitrile]?
**A.** NS9283 Emax ([1]; α4^VFL+β2 10:1, coapplied with 10 µM ACh): no positive efficacy; also recorded: No pos. pot; EC50 [2]: 5.01 µM; Emax ([2]; read-out: NS9283 Emax): 48 ± 5%; NS9283 E31.6 µM ([2]; β-21a-α-β-α-α^VFL, […] NS9283 + 10 µM ACh, % change from AChcontrol current): 41 ± 4%; EC50 ([3]; NS9283 pEC50, β-3a-α + α4^VFL, coapplied with 10 µM ACh): 6.31 µM; NS9283 E31.6 µM ([3]; β-3a-α + α4^VFL, […] NS9283 + 10 µM ACh, % change from AChcontrol current): 22 ± 3%; EC50 ([4]; NS9283 pEC50, β-3a-α^VFL-α-β-α, coapplied with 10 µM ACh): 7.94 µM; Emax ([4]; read-out: NS9283 Emax): 340 ± 20%; NS9283 E31.6 µM ([4]; β-3a-α^VFL-α-β-α, […] NS9283 + 10 µM ACh, % change from AChcontrol current): 270 ± 10%; EC50 [5]: 6.31 µM; Emax ([5]; read-out: NS9283 Emax): 102 ± 10%; NS9283 E31.6 µM ([5]; β-21a-α^VFL-α-β-α, […] NS9283 + 10 µM ACh, % change from AChcontrol current): 85 ± 10%; EC50 ([6]; NS9283 pEC50, β-6a-α + α4^VFL, coapplied with 10 µM ACh): 10 µM; NS9283 E31.6 µM ([6]; β-6a-α + α4^VFL, […] NS9283 + 10 µM ACh, % change from AChcontrol current): 140 ± 10%; Emax ([7]; read-out: NS9283 Emax): 13 ± 1%; NS9283 E31.6 µM ([7]; β-3a-α-β-α-α^VFL, […] NS9283 + 10 µM ACh, % change from AChcontrol current): 11 ± 2%; EC50 ([8]; NS9283 pEC50, β-3a-α^VFL-β-α-α, coapplied with 10 µM ACh): 6.31 µM; Emax ([8]; read-out: NS9283 Emax): 240 ± 20%; EC50 ([9]; NS9283 pEC50, β-21a-α-α^VFL-β-α, coapplied with 10 µM ACh): 10 µM; Emax ([9]; read-out: NS9283 Emax): 75 ± 9%; NS9283 E31.6 µM ([9]; β-21a-α-α^VFL-β-α, […] NS9283 + 10 µM ACh, % change from AChcontrol current): 55 ± 6%; EC50 [10]: 5.01 µM; Emax ([10]; read-out: NS9283 Emax): 910 ± 70%; NS9283 E31.6 µM ([10]; β-21a-α-α-β-α, […] NS9283 + 10 µM ACh, % change from AChcontrol current): 780 ± 90%; EC50 [11]: 10 µM; Emax ([11]; read-out: NS9283 Emax): 130 ± 30%; NS9283 E31.6 µM ([11]; β-9a-α alone, […] NS9283 + 10 µM ACh, % change from AChcontrol current): 100 ± 20%; EC50 [12]: 7.94 µM; EC50 [13]: 7.94 µM; Emax ([13]; read-out: NS9283 Emax): 800 ± 90%; NS9283 E31.6 µM ([13]; β-3a-α-β-α-α, […] NS9283 + 10 µM ACh, % change from AChcontrol current): 640 ± 90%; NS9283 Emax ([14]; coapplied with 10 µM ACh): No hint of NS9283 enhancement; also recorded: No pos. pot; EC50 ([15]; NS9283 pEC50, β-9a-α + α4^VFL, coapplied with 10 µM ACh): 10 µM; NS9283 E31.6 µM ([15]; β-9a-α + α4^VFL, […] NS9283 + 10 µM ACh, % change from AChcontrol current): 200 ± 10%; NS9283 E31.6 µM [16, 23]: 210 ± 20%; EC50 [17]: 3.98 µM; Emax ([17]; read-out: NS9283 Emax): 51 ± 7%; EC50 [18]: 10 µM; Emax ([18]; read-out: NS9283 Emax): 220 ± 30%; NS9283 E31.6 µM ([18]; β-6-α-9-β-6-α alone, […] NS9283 + 10 µM ACh, % change from AChcontrol current): 170 ± 20%; NS9283 E31.6 µM [19, 23]: 860 ± 100%; EC50 [20]: 5.01 µM; Emax ([20]; read-out: NS9283 Emax): 860 ± 60%; EC50 [21]: 12.6 µM; Emax ([21]; read-out: NS9283 Emax): 900 ± 140%; NS9283 E31.6 µM ([21]; β-6-α alone, […] NS9283 + 10 µM ACh, % change from AChcontrol current): 640 ± 90%; EC50 ([22]; NS9283 pEC50, β-9a-α + α4, coapplied with 10 µM ACh): 12.6 µM

Source: publication PMC5839718 (The Journal of General Physiology, 2018)
